The test system of assay [1] is cAMP-dependent protein kinase. Description: Activation of cAMP-dependent protein kinase isolated from beef brain. Format: biochemical, bovine. Particulars: for Protein Kinase, Ka ' Bovine: ratio of Ka of cAMP to Ka of test compound, bovine brain cAMP-dependent kinase; for activation of the cAMP-dependent protein kinase (in words): bovine brain kinase. The source says:
The new 8-substituted purine cyclic nucleotides were examined for their ability to stimulate both a cAMP-dependent protein kinase isolated from beef brain and a cGMP-dependent protein kinase isolated from lobster tail (see Table II).
a Ka ' = The ratio of Ka of the dependent cyclic nucleotide (cAMP for bovine brain and cGMP for lobster tail) to the Ka of the test compound.

In assay [2] the target is cyclic nucleotide phosphodiesterase. Description: Inhibition of cAMP hydrolysis by beef heart cyclic nucleotide phosphodiesterase. Format: biochemical. Particulars: beef heart enzyme; 50% inhibition of cleavage of cAMP, cAMP = 1.6 × 10^-7 M; read-out: Phosphodiesterase Inhibition, I50 Heart. The text has this: (§1) Homogenates of rabbit lung and beef heart are made in sucrose-Tris-magnesium buffer and are subjected to centrifugation at low speed to remove nuclei and cell debris. […] The precipitation which forms at 0-50% saturation is collected by centrifugation at 20,000 × g, dissolved in Tris-magnesium buffer, and dialyzed overnight against the same buffer.

Assay [3] has as its system cGMP-dependent protein kinase. Description: Activation of cGMP-dependent protein kinase isolated from lobster tail. Format: biochemical. Particulars: for ability to activate the cGMP-dependent protein kinase (in words): lobster tail kinase; for Protein Kinase, Ka ' Lobster: ratio of Ka of cGMP to Ka of test compound, lobster tail cGMP-dependent kinase; for specificity between cGMP-dependent and cAMP-dependent protein kinase (in words): lobster tail cGMP-dependent versus bovine brain cAMP-dependent kinase. The source says: The new 8-substituted purine cyclic nucleotides were examined for their ability to stimulate both a cAMP-dependent protein kinase isolated from beef brain and a cGMP-dependent protein kinase isolated from lobster tail (see Table II). […]. Acad. Sci. USA 64, 1349, Kuo et al, 1971, J. Biol. Chem. 246,7159) to be mediated by its activation of a protein kinase.
The Ka of cAMP for the cAMP-dependent protein kinase is about the same (see footnote a, Table II) as the Ka of cGMP for the cGMP-dependent protein kinase. Comparison of the Ka ' values (the ratio of Ka of the dependent cyclic nucleotide to the Ka of the test compound) is, therefore, an accurate guide to the type of kinase stimulation seen at a given cyclic nucleotide concentration.
a Ka ' = The ratio of Ka of the dependent cyclic nucleotide (cAMP for bovine brain and cGMP for lobster tail) to the Ka of the test compound. […]

The target in assay [4] is cyclic nucleotide phosphodiesterase. Description: Inhibition of cAMP hydrolysis by rabbit lung cyclic nucleotide phosphodiesterase. The class given is biochemical. Particulars: rabbit lung enzyme; 50% inhibition of cleavage of cAMP, cAMP = 1.6 × 10^-7 M; read-out: Phosphodiesterase Inhibition, I50 Lung.
Source text: as §1

In assay [5] the test system is cyclic nucleotide phosphodiesterase. Description: Susceptibility to hydrolysis by rabbit kidney cyclic nucleotide phosphodiesterase. The class given is biochemical. Particulars: rabbit kidney enzyme preparation; times the rate of cAMP. The text has this:
All compounds were examined for their susceptibility to hydrolysis by cyclic nucleotide phosphodiesterase. Both cGMP and cIMP were hydrolyzed at approximately one-half the rate of cAMP by a rabbit kidney enzyme preparation generally prepared in the manner described below for rabbit lung enzyme. The new 8-substituted derivatives were not substrates (rate of hydrolysis<0.05 that of the rate of cAMP hydrolysis) within the limits of detection of our assay, with the sole exception of 8-(1-hydroxybutyl)-cGMP (12), which was hydrolyzed at a rate 0.18 times the rate of hydrolysis of cAMP. This finding is in agreement with the general conclusion that 8-substitution of a purine 3',5'-cyclic ribonucleotide greatly reduces the ability of the resulting derivative to serve as a substrate for cyclic nucleotide phosphodiesterase.

Where a name gives a salt, the structure may show the parent alone. A value given as a limit tells only on which side of the number the result lay.

Consider `NC(=O)c1nc2c(=O)[nH]c(N)nc2n1[C@@H]1O[C@@H]2COP(=O)(O)O[C@H]2[C@H]1O` [Compound 10, 8-Carbamoylguanosine 3',5'-Cyclic Phosphate], for which, in assay [1], the “Protein Kinase, Ka ' Bovine” value was less than 0.001. Moreover, the IC50 in assay [2] worked out at 100 µM; in assay [4] it was 400 µM. For the same compound, the “ability to activate the cGMP-dependent protein kinase (in words)” value (from here on “ability”) in assay [3] is “superior to cGMP”. Moreover, the “Protein Kinase, Ka ' Lobster” value in assay [3] is recorded as 1.5.
For the compound `Nc1nc2c(nc(C(O)c3ccccc3)n2[C@@H]2O[C@@H]3COP(=O)(O)O[C@H]3[C@H]2O)c(=O)[nH]1` (stereo partly drawn) [Compound 14, 8-(α-Hydroxybenzyl)guanosine 3',5'-Cyclic Phosphate], in assay [1], the “Protein Kinase, Ka ' Bovine” value is less than 0.005. Moreover, the IC50 in assay [2] was greater than 300 µM. Also, in assay [3], the “ability” value is recorded as “superior to cGMP” and the “Protein Kinase, Ka ' Lobster” value was 2.3. Further, in assay [4], the IC50 turned out to be 140 µM.
Consider `CC(C)C(=O)c1nc2c(=O)[nH]c(N)nc2n1[C@@H]1O[C@@H]2COP(=O)(O)O[C@H]2[C@H]1O` [Compound 8, 8-Isobutyrylguanosine 3',5'-Cyclic Phosphate Ammonium Salt], for which the “Protein Kinase, Ka ' Bovine” value in assay [1] was less than 0.01. In assay [2], the IC50 was determined as 11 µM. Further, in assay [3], the “Protein Kinase, Ka ' Lobster” value is on record as 0.13.
With `Cn1c(=O)c2[nH]cnc2n(C)c1=O` [theophylline, reference compound], the IC50 in assay [2] was 100 µM; in assay [4], 200 µM.
Consider `Cc1nc2c(=O)[nH]c(N)nc2n1[C@@H]1O[C@@H]2COP(=O)(O)O[C@H]2[C@H]1O` [Compound 2, 8-Methylguanosine 3',5'-Cyclic Phosphate], for which the “Protein Kinase, Ka ' Bovine” value in assay [1] is listed as 0.015. The IC50 in assay [2] is 200 µM; in assay [4], 400 µM. Further, the “Protein Kinase, Ka ' Lobster” value in assay [3] was determined as 0.066.
In the same order, the values of `CC(=O)c1nc2c(=O)[nH]c(N)nc2n1[C@@H]1O[C@@H]2COP(=O)(O)O[C@H]2[C@H]1O` [Compound 6, 8-Acetylguanosine 3',5' -Cyclic Phosphate] are less than 0.001, 170 µM, 70 µM and 0.56.
With `CC(=NNC(=O)Nc1ccccc1)c1nc2c(=O)[nH]c(N)nc2n1[C@@H]1O[C@@H]2COP(=O)(O)O[C@H]2[C@H]1O` [Compound 17, 8-Acetylguanosine 3',5'-Cyclic Phosphate 4-Phenylsemicarbazone], the “Protein Kinase, Ka ' Bovine” value in assay [1] is on record as less than 0.01. Besides, the IC50 in assay [2] amounted to 40 µM; in assay [4], 150 µM. For the same compound, in assay [3], the “Protein Kinase, Ka ' Lobster” value is given as 0.11.
With `Nc1nc2c(ncn2[C@@H]2O[C@@H]3COP(=O)(O)O[C@H]3[C@H]2O)c(=O)[nH]1` [Compound 1, guanosine 3',5'-cyclic phosphate, reference compound], in assay [1], the “Protein Kinase, Ka ' Bovine” value is listed as 0.023. For the same compound, the “rate of hydrolysis relative to the rate of cAMP hydrolysis” value in assay [5] is “approximately one-half”. The “Protein Kinase, Ka ' Lobster” value in assay [3] is listed as 1.0.
As for `CC(O)c1nc2c(=O)[nH]c(N)nc2n1[C@@H]1O[C@@H]2COP(=O)(O)O[C@H]2[C@H]1O` (stereo partly drawn) [Compound 11, 8-(1-Hydroxyethyl)guanosine 3',5'-Cyclic Phosphate], in assay [1], the “Protein Kinase, Ka ' Bovine” value is less than 0.01. The IC50 in assay [2] came to 170 µM. Besides, in assay [3], the “ability” value was “superior to cGMP” and the “Protein Kinase, Ka ' Lobster” value was found to be 1.8. In addition, the IC50 in assay [4] was 400 µM.
As for `CC(=NNC(N)=S)c1nc2c(=O)[nH]c(N)nc2n1[C@@H]1O[C@@H]2COP(=O)(O)O[C@H]2[C@H]1O` [Compound 15, 8-Acetylguanosine 3',5'-Cyclic Phosphate Thiosemicarbazone], the “Protein Kinase, Ka ' Bovine” value in assay [1] is recorded as less than 0.005. Besides, the IC50 was 50 µM in assay [2] and 26 µM in assay [4]. In assay [3], the “Protein Kinase, Ka ' Lobster” value turned out to be 0.052.
In the same order, the values of `CC(=NNc1ccccc1)c1nc2c(=O)[nH]c(N)nc2n1[C@@H]1O[C@@H]2COP(=O)(O)O[C@H]2[C@H]1O` [Compound 18, 8-Acetylguanosine 3',5'-Cyclic Phosphate Phenylhydrazone] are less than 0.005, 100 µM, 2000 µM and 0.44.
For the compound `CC(C)(C)Cc1nc2c(=O)[nH]c(N)nc2n1[C@@H]1O[C@@H]2COP(=O)(O)O[C@H]2[C@H]1O` [Compound 5, 8-Neopentylguanosine 3',5'-Cyclic Phosphate], in assay [1], the “Protein Kinase, Ka ' Bovine” value was less than 0.001. The IC50 in assay [2] turned out to be 100 µM; in assay [4], 70 µM. In addition, the “Protein Kinase, Ka ' Lobster” value in assay [3] was found to be 0.16.
Turning to `O=C(c1ccccc1)c1nc2c(=O)[nH]cnc2n1[C@@H]1O[C@@H]2COP(=O)(O)O[C@H]2[C@H]1O` [Compound 21, 8-Benzoylinosine 3',5'-Cyclic Phosphate], in assay [1], the “activation of the cAMP-dependent protein kinase (in words)” value is recorded as “slight activation” and the “Protein Kinase, Ka ' Bovine” value is reported as 0.070. Also, the IC50 in assay [2] worked out at 70 µM. Moreover, in assay [3], the “specificity between cGMP-dependent and cAMP-dependent protein kinase (in words)” value is on record as “slightly greater specificity for the cAMP-dependent enzyme”; the “ability” value is recorded as “slight activation”; the “Protein Kinase, Ka ' Lobster” value is given as 0.011. Moreover, in assay [4], the IC50 was found to be 400 µM.
Take `CC(=NNC(N)=O)c1nc2c(=O)[nH]c(N)nc2n1[C@@H]1O[C@@H]2COP(=O)(O)O[C@H]2[C@H]1O` [Compound 16, 8-Acetylguanosine 3',5'-Cyclic Phosphate Semicarbazone]: the “Protein Kinase, Ka ' Bovine” value in assay [1] is listed as less than 0.005. Further, the IC50 in assay [2] turned out to be 125 µM; in assay [4], 200 µM. In addition, the “Protein Kinase, Ka ' Lobster” value in assay [3] amounted to 0.031.
In the same order, the values of `Nc1nc2c(nc(Cc3ccccc3)n2[C@@H]2O[C@@H]3COP(=O)(O)O[C@H]3[C@H]2O)c(=O)[nH]1` [Compound 4, 8-Benzylguanosine 3',5'-Cyclic Phosphate] are less than 0.001, 140 µM, 130 µM and 0.10.
For `CC(C)c1nc2c(=O)[nH]c(N)nc2n1[C@@H]1O[C@@H]2COP(=O)(O)O[C@H]2[C@H]1O` [Compound 3, 8-Isopropylguanosine 3',5'-Cyclic Phosphate], the “Protein Kinase, Ka ' Bovine” value in assay [1] is listed as less than 0.001. Besides, the IC50 in assay [2] stood at 100 µM; in assay [4], 330 µM. The “Protein Kinase, Ka ' Lobster” value in assay [3] was determined as 0.70.
Consider `Nc1nc2c(nc(C(=O)c3ccccc3)n2[C@@H]2O[C@@H]3COP(=O)(O)O[C@H]3[C@H]2O)c(=O)[nH]1` [Compound 9, 8-Benzoylguanosine 3',5'-cyclic phosphate], for which, in assay [1], the “Protein Kinase, Ka ' Bovine” value is listed as less than 0.005. In addition, the IC50 in assay [2] stood at 50 µM. Also, the “Protein Kinase, Ka ' Lobster” value in assay [3] was 0.68.
Regarding `CCCC(=O)c1nc2c(=O)[nH]c(N)nc2n1[C@@H]1O[C@@H]2COP(=O)(O)O[C@H]2[C@H]1O` [Compound 7, 8-Butyrylguanosine 3',,5' -cyclic phosphate], the “Protein Kinase, Ka ' Bovine” value in assay [1] was determined as 0.064. Further, the IC50 in assay [2] worked out at 90 µM; in assay [4], 70 µM. For the same compound, the “Protein Kinase, Ka ' Lobster” value in assay [3] is 0.20.
Turning to `CC(=O)c1nc2c(=O)[nH]cnc2n1[C@@H]1O[C@@H]2COP(=O)(O)O[C@H]2[C@H]1O` [Compound 20, 8-Acetylinosine 3',5'-Cyclic Phosphate], in assay [1], the “activation of the cAMP-dependent protein kinase (in words)” value is given as “slight activation” and the “Protein Kinase, Ka ' Bovine” value is listed as 0.022. Also, in assay [2], the IC50 worked out at 1000 µM. In addition, in assay [3], the “specificity between cGMP-dependent and cAMP-dependent protein kinase (in words)” value is “slightly greater specificity for the cAMP-dependent enzyme”; the “ability” value is “slight activation”; the “Protein Kinase, Ka ' Lobster” value is reported as 0.0041. Also, in assay [4], the IC50 worked out at 2000 µM.
For `CC(C)C(O)c1nc2c(=O)[nH]c(N)nc2n1[C@@H]1O[C@@H]2COP(=O)(O)O[C@H]2[C@H]1O` (stereo partly drawn) [Compound 13, 8-(1-Hydroxy-2-methylpropyl)guanosine 3',5'-Cyclic Phosphate], in assay [1], the “Protein Kinase, Ka ' Bovine” value is given as less than 0.001. Besides, the IC50 turned out to be 38 µM in assay [2] and 180 µM in assay [4]. For the same compound, in assay [3], the “Protein Kinase, Ka ' Lobster” value turned out to be 0.72.

The values above are taken from patent publication US3968101A, “8-Substituted cyclic nucleotides by free radical alkylation and acylation” (ICN Pharmaceuticals, Inc., priority 1974, dated 1976).
